Data published in patent US20160113921A1, “COMBINATION THERAPY COMPRISING OXAZOLIDINONE-QUINOLONES FOR USE IN TREATING BACTERIAL INFECTIONS” (MORPHOCHEM AKTIENGESELLSCHAFT FÜR KOMBINATORISCHE CHEMIE, priority 2013, published 2016).
Where two headings read alike, the source gives them in different places.

Columns and labels:
Type in all cases: cell-based
[1] = system: E. coli GNS-2601; test: Time-kill curves; conditions: E. coli GNS2601; for growth- and kill rates k ('+' = growth, unmarked = kill rate): first four hours
[2] = system: E. coli ATCC 25922; test: Time-kill curves; conditions: E. coli ATCC25922; for growth- and kill rates k ('+' = growth, unmarked = kill rate): first four hours
[3] = system: E. coli ATCC 25922; test: Checkerboard titration of Compound 1 and colistin
Excerpt: (§1) The checkerboard consists of columns in which each well contains the same amount of antibacterial A being over i dilutions along the x-axis, and in rows in which each well contains the same amount of antibacterial B over j dilutions on the y-axis, i.e. serial dilutions of antibacterials A and B, respectively, are titrated in a rectangular fashion.
(§2) The fractional inhibitory concentration (FIC) is a mathematical expression of the effect of the combination of two antibacterial agents A and B. The FICs were calculated as the MIC of antibacterial A and antibacterial B in combination divided by the MIC of antibacterial A or antibacterial B alone.
(§3) The FICs and FIC index, respectively, are calculated according to the following equations:
(§4) FIC(A)=MIC(A in the presence of B)/MIC(A alone)
(§5) FIC(B)=MIC(B in the presence of A)/MIC(B alone)
(§6) The checkerboard titrations were performed three times.

[4] = system: E. cloacae ATCC 13047; test: Checkerboard titration of Compound 1 and colistin; conditions: checkerboard
Excerpt: as §1, §2, §3, §4, §5, §6

[5] = system: E. cloacae NRZ-00239 (VIM-1 β-lactamase); test: Checkerboard titration of Compound 1 and colistin
Excerpt: as §1, §2, §3, §4, §5, §6

[6] = system: E. coli ATCC 25922; test: MIC, broth microdilution (CLSI), CAMHB; conditions: monosubstance; Ec ATCC25922
Method: (§7) MIC-testing was done immediately after preparation of the dilutions. All tests were done in duplicate and repeated once on a separate occasion.
(§8) 1 mL of the bacterial suspension was transferred into a tube containing 10 mL CAMHB and was vortexed thoroughly. (S. pneumoniae 1 mL in 10 mL CAMHB+5% lysed horse blood). Columns 1-15 of the 96-well plate were inoculated with 5 μL of this suspension (1-15=antibacterial solution, 16=sterile medium without test item).
(§9) Turbidity was read visually with a mirror.

[7] = system: K. pneumoniae NRZ-00103 (KPC-2); test: MIC, broth microdilution (CLSI), CAMHB; conditions: monosubstance; Kp NRZ00103
Method: as §7, §8, §9

[8] = system: P. mirabilis NRZ-00185 (AmpC, type CMY-2); test: MIC, broth microdilution (CLSI), CAMHB; conditions: monosubstance; Pm NRZ00185
Method: as §7, §8, §9

[9] = system: K. pneumoniae ATCC 13883; test: MIC, broth microdilution (CLSI), CAMHB; conditions: monosubstance; Kp ATCC13883
Method: as §7, §8, §9

[10] = system: K. pneumoniae NRZ-00002 (OXA-48); test: MIC, broth microdilution (CLSI), CAMHB; conditions: monosubstance; Kp NRZ00002
Method: as §7, §8, §9

[11] = system: E. coli NRZ-00302 (metallo β-lactamase NDM-1); test: MIC, broth microdilution (CLSI), CAMHB; conditions: monosubstance; Ec NRZ00302
Method: as §7, §8, §9

[12] = system: E. coli NRZ-00401 (metallo β-lactamase VIM-1); test: MIC, broth microdilution (CLSI), CAMHB; conditions: monosubstance; Ec NRZ00401
Method: as §7, §8, §9

[13] = system: P. mirabilis ATCC 9240; test: MIC, broth microdilution (CLSI), CAMHB; conditions: monosubstance; Pm ATCC9240
Method: as §7, §8, §9

[14] = system: E. cloacae ATCC 13047; test: MIC, broth microdilution (CLSI), CAMHB; conditions: monosubstance; Ecl ATCC13047
Method: as §7, §8, §9

[15] = system: P. aeruginosa ATCC 10145; test: MIC, broth microdilution (CLSI), CAMHB; conditions: monosubstance; Pa ATCC10145
Method: as §7, §8, §9

[16] = system: E. coli GNS-2601 (ESBL CTX-M-15); test: MIC, broth microdilution (CLSI), CAMHB; conditions: monosubstance; Ec GNS2601
Method: as §7, §8, §9

[17] = system: E. cloacae NRZ-00239 (VIM-1); test: MIC, broth microdilution (CLSI), CAMHB; conditions: monosubstance; Ecl NRZ00239
Method: as §7, §8, §9

[18] = system: K. pneumoniae NRZ-00535 (VIM-1); test: MIC, broth microdilution (CLSI), CAMHB; conditions: monosubstance; Kp NRZ00535
Method: as §7, §8, §9

[19] = system: P. aeruginosa NRZ-00425 (VIM-1); test: MIC, broth microdilution (CLSI), CAMHB; conditions: monosubstance; Pa NRZ00425
Method: as §7, §8, §9

[20] = system: P. aeruginosa NRZ-00425 (VIM-2 β-lactamase); test: microbe, parasite or virus in culture; conditions: checkerboard
Excerpt: as §1, §2, §3, §4, §5, §6

[21] = system: E. coli NRZ-00302; test: Time-kill curves; conditions: E. coli NRZ00302; for growth- and kill rates k ('+' = growth, unmarked = kill rate): first four hours
[22] = system: E. coli NRZ-00302 (NDM-1 β-lactamase); conditions: checkerboard
Excerpt: as §1, §2, §3, §4, §5, §6

[23] = system: K. pneumoniae NRZ-00535 (VIM-1 β-lactamase); conditions: checkerboard
Excerpt: as §1, §2, §3, §4, §5, §6

[24] = system: E. coli NRZ-00401; test: Time-kill curves; conditions: E. coli NRZ00401; for growth- and kill rates k ('+' = growth, unmarked = kill rate): first four hours
[25] = system: E. coli ATCC 25922, NRZ-00401, NRZ-00302 and GNS-2601; test: Time-kill curves, statements on the four E. coli strains; conditions: one- or two-times MIC; four E. coli strains

## colistin
[1]; single agent at 1x its MIC
  growth- and kill rates k ('+' = growth, unmarked = kill rate): 1.55 h⁻¹
  Viable counts at 8 h of exposure: 0 log10 CFU/mL
[1]; single agent at 2x its MIC
  growth- and kill rates k ('+' = growth, unmarked = kill rate): 1.80 h⁻¹
  Viable counts at 8 h of exposure: 0 log10 CFU/mL
[2]; single agent at 1x its MIC
  growth- and kill rates k ('+' = growth, unmarked = kill rate): 0.86 h⁻¹
  Viable counts at 8 h of exposure: 0 log10 CFU/mL
[2]; single agent at 2x its MIC
  growth- and kill rates k ('+' = growth, unmarked = kill rate): 1.04 h⁻¹
  Viable counts at 8 h of exposure: 0 log10 CFU/mL
[3]
  MIC (agent alone): 1 to 2 µg/mL
[4]
  MIC (agent alone): 256 µg/mL
[5]
  MIC (agent alone): 1 µg/mL
[5]; listed as col
  MIC (agent alone): 0.5 to 1 µg/mL
[6]
  MIC: 1 µg/mL
[7]
  MIC: 0.25 µg/mL
[8]
  MIC: >256 µg/mL
[9]
  MIC: 0.03 µg/mL
[10]
  MIC: 0.25 µg/mL
[11]
  MIC: 1 µg/mL
[12]
  MIC: 1 µg/mL
[13]
  MIC: >256 µg/mL
[14]
  MIC: 64 µg/mL
[15]
  MIC: 0.5 µg/mL
[16]
  MIC: 2 µg/mL
[17]
  MIC: 0.5 µg/mL
[18]
  MIC: 0.25 µg/mL
[19]
  MIC: 1 µg/mL
[20]
  MIC (agent alone): 2 µg/mL
[21]; single agent at 1x its MIC
  growth- and kill rates k ('+' = growth, unmarked = kill rate): 1.63 h⁻¹
  Viable counts at 8 h of exposure: 1.95 log10 CFU/mL
[21]; single agent at 2x its MIC
  growth- and kill rates k ('+' = growth, unmarked = kill rate): 1.89 h⁻¹
  Viable counts at 8 h of exposure: 0 log10 CFU/mL
[22]
  MIC (agent alone): 0.5 to 1 µg/mL
[23]
  MIC (agent alone): 0.5 to 2 µg/mL
[24]; single agent at 1x its MIC
  growth- and kill rates k ('+' = growth, unmarked = kill rate): 2.46 h⁻¹
  Viable counts at 8 h of exposure: 0 log10 CFU/mL
[24]; single agent at 2x its MIC
  growth- and kill rates k ('+' = growth, unmarked = kill rate): 2.53 h⁻¹
  Viable counts at 8 h of exposure: 0 log10 CFU/mL
[25]
  type of activity in time-kill: bactericidal
